Measured values as given in the NIST ThermoML archive (doi:10.1016/j.fluid.2006.12.015).
Numbers after ± are expanded uncertainties.

What was measured:
[1] = Liquid, Ebulliometric method (Recirculating still)
[2] = refractive index (Na D-line) (dimensionless); conditions: 298.15 K; 101.33 kPa; Liquid; Standard Abbe refractometry

SMILES: CCOC(C)(C)C [2-ethoxy-2-methylpropane]
- vapor or sublimation pressure ([1]; 312.51 K): 30.76 ± 0.37 kPa
- vapor or sublimation pressure ([1]; 318.88 K): 39.54 ± 0.37 kPa
- vapor or sublimation pressure ([1]; 326.24 K): 52.05 ± 0.39 kPa
- vapor or sublimation pressure ([1]; 331.11 K): 62.01 ± 0.4 kPa
- vapor or sublimation pressure ([1]; 333.15 K): 66.52 ± 0.51 kPa
- vapor or sublimation pressure ([1]; 335.04 K): 71.06 ± 0.42 kPa
- vapor or sublimation pressure ([1]; 339.18 K): 81.64 ± 0.43 kPa
- vapor or sublimation pressure ([1]; 342.53 K): 91.06 ± 0.45 kPa
- vapor or sublimation pressure ([1]; 343.15 K): 92.96 ± 0.56 kPa
- vapor or sublimation pressure ([1]; 345.9 K): 101.41 ± 0.46 kPa
- refractive index [2]: 1.373 ± 0.0007

SMILES: CCSCC [3-thiapentane]
- vapor or sublimation pressure ([1]; 333.15 K): 34.97 ± 0.41 kPa
- vapor or sublimation pressure ([1]; 343.15 K): 50.14 ± 0.45 kPa
- vapor or sublimation pressure ([1]; 353.15 K): 70.15 ± 0.49 kPa
- refractive index [2]: 1.44 ± 0.0007

SMILES: C1CCCCC1 [cyclohexane]
- vapor or sublimation pressure ([1]; 318.47 K): 30.51 ± 0.37 kPa
- vapor or sublimation pressure ([1]; 326.06 K): 40.65 ± 0.37 kPa
- vapor or sublimation pressure ([1]; 331.63 K): 49.56 ± 0.38 kPa
- vapor or sublimation pressure ([1]; 337.52 K): 60.6 ± 0.39 kPa
- vapor or sublimation pressure ([1]; 342.21 K): 70.8 ± 0.41 kPa
- vapor or sublimation pressure ([1]; 343.15 K): 72.66 ± 0.52 kPa
- vapor or sublimation pressure ([1]; 346.25 K): 80.64 ± 0.43 kPa
- vapor or sublimation pressure ([1]; 350.08 K): 90.89 ± 0.44 kPa
- vapor or sublimation pressure ([1]; 353.15 K): 99.41 ± 0.58 kPa
- vapor or sublimation pressure ([1]; 353.32 K): 100.38 ± 0.45 kPa
- refractive index [2]: 1.4235 ± 0.0007

SMILES: Cc1ccccc1 [toluene]
- refractive index [2]: 1.4939 ± 0.0007
